The source of these data is PubChem BioAssay AID328 (DTP/NCI, 2004).

This assay relates to BDF1 mice, P388 leukemia ip, median survival T/C. The experiment in a line: NCI In Vivo Anticancer Drug Screen. Data for tumor model P388 Leukemia (intraperitoneal) in B6D2F1 (BDF1) mice. To be noted: endpoint: median survival time, higher = longer survival. The method, boiled down:
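Antitumour effect was judged in vivo: survival in drug-treated mice, normalised to that of vehicle-dosed controls, gives the reported T/C.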

Where [1] appears, read: dose: 50.0 mg/kg/injection, schedule: Q01DX009 (ip), vehicle: saline with Tween-80.
Where [2] appears, read: dose: 100.0 mg/kg/injection, schedule: Q01DX009 (ip), vehicle: saline with Tween-80.
The mark [3] stands for this setting: dose: 200.0 mg/kg/injection, schedule: Q01DX009 (ip), vehicle: saline with Tween-80.
Where [4] appears, read: dose: 400.0 mg/kg/injection, schedule: Q01DX009 (ip), vehicle: saline with Tween-80.
Where [5] appears, read: dose: 100.0 mg/kg/injection, schedule: Q04DX003 (ip), vehicle: Klucel (hydroxypropylcellulose) (HPC).
Setting [6] is: dose: 50.0 mg/kg/injection, schedule: Q04DX003 (ip), vehicle: Klucel (hydroxypropylcellulose) (HPC).
[7] abbreviates: dose: 200.0 mg/kg/injection, schedule: Q04DX003 (ip), vehicle: Klucel (hydroxypropylcellulose) (HPC).
Where [8] appears, read: dose: 100.0 mg/kg/injection, schedule: Q01DX009 (ip), vehicle: Klucel (hydroxypropylcellulose) (HPC).
Where [9] appears, read: dose: 200.0 mg/kg/injection, schedule: Q01DX009 (ip), vehicle: Klucel (hydroxypropylcellulose) (HPC).
Setting [10] is: dose: 400.0 mg/kg/injection, schedule: Q01DX009 (ip), vehicle: Klucel (hydroxypropylcellulose) (HPC).
Where [11] appears, read: dose: 400.0 mg/kg/injection, schedule: Q04DX003 (ip), vehicle: Klucel (hydroxypropylcellulose) (HPC).

“And” between values parts separate entries of the source, which are not always exact repeats. Equal values may be shown once. Inconclusive results and toxic doses are left out.

`NC(=O)NOCC1NC(=O)C(CONC(N)=O)NC1=O` (configuration not stated): the T/C was 116 % of control (dose: 100.0 mg/kg/injection, schedule: Q01DX009 (ip), vehicle: saline) and 105 % of control (dose: 400.0 mg/kg/injection, schedule: Q01DX009 (ip), vehicle: saline).
With `COC1=C(O)C(C(O)CO)OC1=O` (configuration not stated), the T/C is 94 % of control (dose: 6.25 mg/kg/injection, schedule: Q01DX009 (ip), vehicle: water); 112 % of control (dose: 12.5 mg/kg/injection, schedule: Q01DX009 (ip), vehicle: water); 110 % of control (dose: 25.0 mg/kg/injection, schedule: Q01DX009 (ip), vehicle: water); 112 % of control (dose: 25.0 mg/kg/injection, schedule: Q04DX003 (ip), vehicle: water); 100 % of control (dose: 50.0 mg/kg/injection, schedule: Q01DX009 (ip), vehicle: water); 97 % of control (dose: 50.0 mg/kg/injection, schedule: Q04DX003 (ip), vehicle: water). Besides, the T/C runs as follows: (dose: 100.0 mg/kg/injection, schedule: Q01DX009 (ip), vehicle: water) 91 % of control; (dose: 100.0 mg/kg/injection, schedule: Q04DX003 (ip), vehicle: water) 100 % of control; (dose: 200.0 mg/kg/injection, schedule: Q01DX009 (ip), vehicle: water) 103 % of control; (dose: 200.0 mg/kg/injection, schedule: Q04DX003 (ip), vehicle: water) 95 % of control; (dose: 400.0 mg/kg/injection, schedule: Q01DX009 (ip), vehicle: water) 100 % of control; (dose: 400.0 mg/kg/injection, schedule: Q04DX003 (ip), vehicle: water) 105 % of control.
On to `Cc1cc(C)c(N)c(Br)c1`, for which the T/C reads like this: (dose: 12.5 mg/kg/injection, schedule: Q01DX009 (ip), vehicle: other) 90 % of control; (dose: 25.0 mg/kg/injection, schedule: Q01DX009 (ip), vehicle: other) 90 % of control; (dose: 50.0 mg/kg/injection, schedule: Q01DX009 (ip), vehicle: other) 114 % of control; (dose: 100.0 mg/kg/injection, schedule: Q04DX003 (ip), vehicle: other) 100 % of control.
As for `C[Si](C)(C)O/C=C1/CCOC1=O`, the T/C reads like this: under setting [1], 102 % of control; under setting [2], 110 % of control; under setting [3], 119 % of control; under setting [4], 117 % of control.
`N#CCC(=O)Cc1ccccc1[N+](=O)[O-]`: under “dose: 400.0 mg/kg/injection, schedule: Q01DX001 (ip), vehicle: saline sonified”, the T/C was 100 % of control.
As for `O=NN(CCBr)C(=O)Nc1ccccc1`, the T/C is, setting by setting: (dose: 4.0 mg/kg/injection, schedule: Q04DX003 (ip), vehicle: Klucel (hydroxypropylcellulose) (HPC)) 107 % of control; (dose: 6.5 mg/kg/injection, schedule: Q04DX003 (ip), vehicle: Klucel (hydroxypropylcellulose) (HPC)) 119 % of control; (dose: 11.0 mg/kg/injection, schedule: Q01DX009 (ip), vehicle: Klucel (hydroxypropylcellulose) (HPC)) 150 % of control and 158 % of control; (dose: 15.0 mg/kg/injection, schedule: Q04DX003 (ip), vehicle: Klucel (hydroxypropylcellulose) (HPC)) 162 % of control; (dose: 16.5 mg/kg/injection, schedule: Q01DX009 (ip), vehicle: Klucel (hydroxypropylcellulose) (HPC)) 166 % of control; (dose: 16.5 mg/kg/injection, schedule: Q01DX009 (ip), vehicle: saline with Tween-80) 185 % of control. Further, the T/C was 195 % of control and 215 % of control (dose: 25.0 mg/kg/injection, schedule: Q01DX009 (ip), vehicle: Klucel (hydroxypropylcellulose) (HPC)); 200 % of control (dose: 25.0 mg/kg/injection, schedule: Q01DX009 (ip), vehicle: saline with Tween-80); 154 % of control and 168 % of control (dose: 29.0 mg/kg/injection, schedule: Q04DX003 (ip), vehicle: Klucel (hydroxypropylcellulose) (HPC)); 220 % of control (dose: 37.5 mg/kg/injection, schedule: Q01DX009 (ip), vehicle: Klucel (hydroxypropylcellulose) (HPC)); 210 % of control (dose: 37.5 mg/kg/injection, schedule: Q01DX009 (ip), vehicle: saline with Tween-80); 175 % of control and 181 % of control (dose: 44.0 mg/kg/injection, schedule: Q04DX003 (ip), vehicle: Klucel (hydroxypropylcellulose) (HPC)). Besides, the T/C was 167 % of control and 185 % of control and 204 % of control (dose: 67.0 mg/kg/injection, schedule: Q04DX003 (ip), vehicle: Klucel (hydroxypropylcellulose) (HPC)); 121 % of control and 211 % of control under setting [5]; 175 % of control (dose: 150.0 mg/kg/injection, schedule: Q04DX003 (ip), vehicle: Klucel (hydroxypropylcellulose) (HPC)).
In the case of `O=C(c1ccccc1)C1CCC(=O)C1c1ccccc1` (configuration not stated), the T/C is 108 % of control under setting [1], 100 % of control under setting [2] and 99 % of control under setting [3].
With `CCC1=CCN2CCC34c5cc(C6(C(=O)OC)CC7CC(CC)CN(CCc8c6[nH]c6ccccc86)C7)c(OC)cc5N(C)C3C(O)(C(=O)OC)C(OC(C)=O)C1C24` (configuration not stated), the T/C was 100 % of control (dose: 0.03 mg/kg/injection, schedule: Q01DX010 (ip), vehicle: saline); 104 % of control (dose: 0.06 mg/kg/injection, schedule: Q01DX010 (ip), vehicle: saline); 95 % of control (dose: 0.13 mg/kg/injection, schedule: Q01DX010 (ip), vehicle: saline); 100 % of control (dose: 0.25 mg/kg/injection, schedule: Q01DX010 (ip), vehicle: saline); 86 % of control (dose: 0.5 mg/kg/injection, schedule: Q01DX010 (ip), vehicle: saline).
Turning to `O=P(Cc1ccccc1)(C(O)c1ccccc1)C(O)c1ccccc1` (configuration not stated), the T/C reads like this: under setting [6], 100 % of control; under setting [5], 100 % of control; under setting [7], 100 % of control.
As for `COC(=O)C(CC(=O)c1ccccc1)NCc1ccccc1` (configuration not stated), the T/C was 100 % of control (dose: 100.0 mg/kg/injection, schedule: Q01DX001 (ip), vehicle: saline with Tween-80); 95 % of control (dose: 200.0 mg/kg/injection, schedule: Q01DX001 (ip), vehicle: saline with Tween-80); 100 % of control (dose: 400.0 mg/kg/injection, schedule: Q01DX001 (ip), vehicle: saline with Tween-80).
For the compound `C(=C\c1nc2ncccn2n1)/c1ccccc1`, the T/C reads like this: under setting [1], 101 % of control; under setting [2], 87 % of control; under setting [3], 100 % of control.
As for `c1ccc2cc3c(cc2c1)Cn1c-3nc2ccccc21`, the T/C is, setting by setting: under setting [2], 100 % of control; under setting [3], 100 % of control; under setting [4], 95 % of control.
`CN(C)C=Nc1ccccc1`: the T/C under setting [8] was 113 % of control, the T/C under setting [9] is 95 % of control and the T/C under setting [10] was 109 % of control.
Turning to `O=C(/C=C/c1ccc2c(c1)OCO2)c1ccccc1`, the T/C is 114 % of control and 105 % of control (dose: 50.0 mg/kg/injection, schedule: Q01DX009 (ip), vehicle: Klucel (hydroxypropylcellulose) (HPC)); 112 % of control and 100 % of control under setting [8]; 104 % of control under setting [5]; 112 % of control under setting [9]; 100 % of control under setting [7]; 95 % of control under setting [11].
As to `CCOC(=S)SCC(=O)Nc1ccc(Cl)cc1`, the T/C was 110 % of control (dose: 75.0 mg/kg/injection, schedule: Q01DX009 (ip), vehicle: saline with Tween-80); 89 % of control (dose: 150.0 mg/kg/injection, schedule: Q01DX009 (ip), vehicle: saline with Tween-80); 89 % of control (dose: 300.0 mg/kg/injection, schedule: Q01DX009 (ip), vehicle: saline with Tween-80).
On to `N=C(N)SCCC(=O)O`, for which the T/C under setting [6] is 109 % of control; the T/C under setting [8] is 100 % of control; the T/C under setting [5] was 100 % of control; the T/C under setting [9] is 110 % of control; the T/C under setting [7] was 109 % of control; the T/C under setting [10] is 90 % of control.
For the compound `OCC(O)CCBr` (configuration not stated), the T/C is 150 % of control (dose: 264.0 mg/kg/injection, schedule: Q01DX009 (ip), vehicle: saline with Tween-80); 170 % of control under setting [4]; 208 % of control (dose: 600.0 mg/kg/injection, schedule: Q01DX009 (ip), vehicle: saline with Tween-80).
Regarding `Cc1ccc(-c2c(O)c(Br)c(-c3ccc(C)cc3C)c(O)c2Br)c(C)c1`, the T/C is 100 % of control under setting [2], 100 % of control under setting [3] and 100 % of control under setting [4].
`O=C(Nc1cc(Cl)ccc1Cl)c1ccccc1Cl`: the T/C was 100 % of control under setting [8]; 104 % of control under setting [5]; 113 % of control under setting [9]; 104 % of control under setting [7]; 100 % of control under setting [11].
